± gives the standard error.
Tests used:
621-102 (TSC2-deficient) = experiment: relative viability vs DMSO; higher = less cytotoxic; details: serum: 10% FBS, 72 h
621-103 (TSC2-rescued) = experiment: as above; details: serum: 10% FBS, 72 h
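Also: immortalized renal angiomyolipoma cells stably carrying empty vector or TSC2, dosed in 384-well plates in DMEM, viability normalized to vehicle-treated wells within each plate.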

SMILES	relative viability (621-102 (TSC2-deficient); 0.0001 µM) [%]	relative viability (621-102 (TSC2-deficient); 0.001 µM) [%]	relative viability (621-102 (TSC2-deficient); 0.01 µM) [%]	relative viability (621-102 (TSC2-deficient); 0.1 µM) [%]	relative viability (621-102 (TSC2-deficient); 1 µM) [%]	relative viability (621-102 (TSC2-deficient); 10 µM) [%]	relative viability (621-103 (TSC2-rescued); 0.0001 µM) [%]	relative viability (621-103 (TSC2-rescued); 0.001 µM) [%]	relative viability (621-103 (TSC2-rescued); 0.01 µM) [%]	relative viability (621-103 (TSC2-rescued); 0.1 µM) [%]	relative viability (621-103 (TSC2-rescued); 1 µM) [%]	relative viability (621-103 (TSC2-rescued); 10 µM) [%]
Cc1c(NC(=O)OC[C@@H]2COCCN2)cn2ncnc(Nc3ccc4c(cnn4Cc4cccc(F)c4)c3)c12	101 ± 2.7	104 ± 2	97.6 ± 2	104.2 ± 0.79	96.3 ± 2.8	81.33 ± 0.65	100.9 ± 0.54	100 ± 1.2	102 ± 1.5	101.3 ± 0.88	101 ± 1.9	82.5 ± 5.9
Cc1ccc(C(=O)N(CCCN)[C@@H](c2oc3cc(Cl)ccc3c(=O)c2Cc2ccccc2)C(C)C)cc1	61.7 ± 2.2	67.7 ± 4.4	75.95 ± 0.11	69.9 ± 1.3	80.2 ± 2.9	1.36 ± 0.19	40.45 ± 0.2	46.1 ± 0.55	59.1 ± 2	50.6 ± 1.8	47.3 ± 5.6	1.36 ± 0.14
Cc1ccc(NC(=O)c2cccc(N(C)C)c2)cc1NC(=O)c1ccc(O)cc1	90.2 ± 2	102 ± 2.6	100.2 ± 0.28	109 ± 5	109 ± 5.4	92.1 ± 6	104.9 ± 0.89	102 ± 4	101 ± 3.8	101 ± 4.5	94.6 ± 5	98.9 ± 1.4
Cc1cccc(-c2[nH]c(C(C)(C)C)nc2-c2ccc3nccnc3c2)n1	115.4 ± 0.35	111 ± 2.5	101.9 ± 0.66	108.6 ± 0.23	105 ± 2.2	38.9 ± 2.9	98.4 ± 1.4	99.6 ± 2.7	97.58 ± 0.26	95.9 ± 2.7	97.18 ± 0.62	83.8 ± 1.5
Cc1cnc(Nc2ccc(N3CCN(C)CC3)cc2)nc1Nc1cccc(S(=O)(=O)NC(C)(C)C)c1	116.1 ± 0.23	120 ± 3.8	109 ± 6.5	107 ± 2.4	80.4 ± 2.8	3.65 ± 0.42	102 ± 2.6	98.71 ± 0.22	95.5 ± 4.1	97.4 ± 1.1	51 ± 1.3	1.33 ± 0.2
Cn1c(N2CCCCS2(=O)=O)nc(C(=O)NCc2ccc(F)cc2)c(O)c1=O	104 ± 2.9	106 ± 1.5	106 ± 1.5	102 ± 1.9	108.8 ± 0.34	99.97 ± 0.61	99.8 ± 2.4	105.9 ± 0.6	101 ± 2.4	101 ± 2.1	100.8 ± 0.82	100 ± 1.4
Cn1cc(C2=C(c3ccc(Cl)cc3Cl)C(=O)NC2=O)c2ccccc21	107.48 ± 0.025	103 ± 2.8	98.2 ± 1.1	90.4 ± 5.3	96.83 ± 0.6	97.5 ± 1.9	77.6 ± 1.8	84.2 ± 1.4	89.8 ± 2.4	92.5 ± 5.7	80.2 ± 1.9	76.2 ± 6.7
N#Cc1c(O)c2c(-c3ccc(-c4ccccc4O)cc3)csc2[nH]c1=O	87.4 ± 2.6	101.1 ± 0.29	99.8 ± 4.8	93.17 ± 0.38	98.55 ± 0.91	87.2 ± 3.2	99.2 ± 3.3	95.56 ± 0.75	96.1 ± 3.5	97.25 ± 0.34	100.3 ± 0.89	105 ± 3.5
NC(=O)[C@@H](CCC(F)(F)F)N(Cc1ccc(-c2ncon2)cc1F)S(=O)(=O)c1ccc(Cl)cc1	109.7 ± 0.27	108 ± 2.7	124 ± 2.7	116.1 ± 0.31	117 ± 2.9	108 ± 2.9	103 ± 1.2	102 ± 1.3	101.6 ± 0.3	103.4 ± 0.95	103.76 ± 0.01	102 ± 1.9
NC(=O)c1ccc(-c2nc(-c3ccccn3)c(-c3ccc4c(c3)OCO4)[nH]2)cc1	111 ± 2.5	116 ± 1.5	114.2 ± 0.63	117 ± 3.9	112.6 ± 1	106.7 ± 0.3	102 ± 3.6	108.5 ± 0.46	111 ± 4.9	98.44 ± 0.36	98.1 ± 1.6	94.07 ± 0.91

From the supplement of paper PMC8960247
